Experimental data: ChEMBL document CHEMBL2216755, “Ranking high affinity ligands of low solubility by NMR spectroscopy” (ACS Med Chem Lett, 2011)
pKd: −log10 of the molar value.

Experiments:
[1] = biological target: T1, Peptidyl-prolyl cis-trans isomerase A (Homo sapiens, UniProt P62937); assay: Binding affinity to human cyclophilin A by intrinsic tryptophan fluorescence
Target sequence in this assay (P62937 whole entry): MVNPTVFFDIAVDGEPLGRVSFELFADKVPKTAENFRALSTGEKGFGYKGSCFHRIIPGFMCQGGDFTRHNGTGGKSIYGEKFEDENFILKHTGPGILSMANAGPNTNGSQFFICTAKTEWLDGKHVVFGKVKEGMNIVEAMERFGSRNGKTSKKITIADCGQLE

[2] = biological target: T1, Peptidyl-prolyl cis-trans isomerase A; assay: Binding affinity to human cyclophilin A assessed as compound-enzyme complex formation at 1:1 protein to compound ratio by NMR analysis
Target sequence in this assay (P62937 whole entry, looked up): as the sequence (P62937 whole entry) above

Activity [2] [%]	Structure (SMILES)	pKd [1]
	C/C=C/C[C@@H](C)[C@@H](O)[C@H]1C(=O)N[C@@H](CC)C(=O)N(C)CC(=O)N(C)[C@@H](C(C)C)C(=O)N[C@@H](C(C)C)C(=O)N(C)[C@@H](CC(C)C)C(=O)N[C@@H](C)C(=O)N[C@H](C)C(=O)N(C)[C@@H](CC(C)C)C(=O)N(C)[C@@H](CC(C)C)C(=O)N(C)[C@@H](C(C)C)C(=O)N1C	7.96
59	C/C=C/C[C@@H](C)[C@@H](O)[C@H]1C(=O)N[C@@H](CC)C(=O)N(C)[C@H](C)C(=O)N(CC)[C@@H](C(C)C)C(=O)N[C@@H](C(C)C)C(=O)N(C)[C@@H](CC(C)C)C(=O)N[C@@H](C)C(=O)N[C@H](C)C(=O)N(C)[C@@H](CC(C)C)C(=O)N(C)[C@@H](CC(C)C)C(=O)N(C)[C@@H](C(C)C)C(=O)N1C [ALISPORIVIR]	7.96
53	C/C=C/C[C@@H](C)[C@@H](O)[C@H]1C(=O)N[C@@H](CC)C(=O)N(C)CC(=O)N(C)[C@@H](CC(C)C)C(=O)N[C@@H](C(C)C)C(=O)N(C)[C@@H](CC(C)C)C(=O)N[C@@H](C)C(=O)N[C@H](C)C(=O)N(C)[C@@H](CC(C)C)C(=O)N(C)[C@@H](C(C)C)C(=O)N(C)[C@@H](C(C)C)C(=O)N1C	
